Assay results from BindingDB's records for PubMed 32120325 (China Pharmaceutical University, 2020).

What was measured:
[1] = target: T1, Signal transducer and activator of transcription 3 (Homo sapiens, UniProt P40763); assay: Inhibition of IL-23 stimulated STAT3 […] in human naive T cell preincubated with compound for 10 to 15 mins followed by IL-23 stimulation and measured after 15 mins by ELISA analysis
[2] = target: T1, Signal transducer and activator of transcription 3; assay: Inhibition of IL-6 stimulated STAT3 phosphorylation in human PBMC preincubated with compound for 10 to 15 mins followed by IL-6 stimulation and measured after 15 mins by ELISA analysis

T1 sequence (P40763 whole entry): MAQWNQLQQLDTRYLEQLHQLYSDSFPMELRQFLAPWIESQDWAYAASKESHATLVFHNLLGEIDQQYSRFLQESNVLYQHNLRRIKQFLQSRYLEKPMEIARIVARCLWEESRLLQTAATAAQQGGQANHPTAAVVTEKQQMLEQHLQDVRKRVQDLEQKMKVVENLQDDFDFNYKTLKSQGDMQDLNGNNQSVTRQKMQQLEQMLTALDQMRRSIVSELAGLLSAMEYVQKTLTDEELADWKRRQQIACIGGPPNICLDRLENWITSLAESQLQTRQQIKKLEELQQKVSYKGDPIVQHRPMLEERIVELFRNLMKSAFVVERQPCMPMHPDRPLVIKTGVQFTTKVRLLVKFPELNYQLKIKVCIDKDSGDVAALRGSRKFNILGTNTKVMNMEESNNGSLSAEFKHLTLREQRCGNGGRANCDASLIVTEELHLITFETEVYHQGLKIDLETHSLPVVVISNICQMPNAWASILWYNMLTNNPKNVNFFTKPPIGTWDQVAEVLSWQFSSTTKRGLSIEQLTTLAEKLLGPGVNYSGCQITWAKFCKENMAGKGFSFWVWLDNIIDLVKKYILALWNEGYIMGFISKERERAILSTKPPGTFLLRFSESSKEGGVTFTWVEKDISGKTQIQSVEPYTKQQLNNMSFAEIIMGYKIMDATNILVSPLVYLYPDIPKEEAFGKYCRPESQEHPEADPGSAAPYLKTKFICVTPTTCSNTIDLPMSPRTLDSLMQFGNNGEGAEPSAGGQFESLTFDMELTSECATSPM

IC50 [1]: 20 nM | IC50 [2]: 44 nM
SMILES: CCS(=O)(=O)N1CC(CC#N)(n2cc(-c3ncnc4[nH]ccc34)cn2)C1 [LY-3009104]
